# Reference: patent publication EP0714404B1, “ANTI-INFLAMMATORY PEPTIDES” (CURATIVE TECHNOLOGIES, INC., priority 1993, dated 1995)
# Read-outs that look alike come from different tables or passages of the source. Residues, ends and D or L forms follow the SMILES beside them.
# Legend:
# Type in all cases: in vivo, mice
# [1] = system: Arachidonic Acid Induced Inflammation; details: mouse, in vivo
# Description: (§1) The anti-inflammatory properties of CT-112 (SEQ. ID NO: 1) were assessed using a standardized assay for anti-inflammatory activity, i.e., the mouse ear model in which arachidonic acid (AA) is used to induce an inflammatory reaction (Young et al., 1984, J. Invest. Dermatol. 82:367-371; Doherty, et al., 1988, J. Invest. Dermatol. 91:298-302).
# (§2) Female mice (C57BL/6UAF, Charles River Breeding Laboratories, approximately 15-18 g) were obtained and acclimated for 2 weeks prior to use. The animals were approximately 14 weeks old at the start of the study.
# (§3) To prepare minipumps for implantation, CT-112 (SEQ. ID NO: 1) was dissolved in PBS. The material was loaded into Alzet minipumps set to deliver 0.05 (5 animals), 0.1 (10 animals), 1 (10 animals), or 2.5 (5 animals) mg of CT-112 (SEQ. ID NO: 1) per animal per day. Minipumps for implantation into control animals contained only PBS. As a positive control, one set of 10 mice received 100 mg/kg of phenidone, a potent 5-lipoxygenase inhibitor which acts as an anti-inflammatory agent, 15 min prior to challenge with AA.
# (§4) For subcutaneous implantation of minipumps, animals were anesthetized with Ketamine/Xylazine. The Ketamine (Aveco Lot #440140) was injected at 80 mg/kg and the Xylazine (Rugby Laboratories Lot #26040-B) at 16 mg/kg and the Alzet pumps were implanted subcutaneously in the dorsothoracic area. Animals were allowed to recover and then housed and given food and water ad libitum for 5 days.
# (§5) On the sixth day following pump implantation, 0.01 ml of AA was applied to the inner and outer surfaces of the right ear by means of an automatic microliter pipette. One hr following AA application, the mice were sacrificed and ear thickness was measured with a Mitutoyo No. 7300 Gauge Caliper. The left ears were also measured as an internal control.
# (§6) Mice were implanted with Alzet mini-pumps set to deliver 60 mg/kg/day for either 7, 3, or 1 days. A separate group of 5 mice received 3 intraperitoneal injections of CT-112 (60 mg/kg/injection) at 24, 1 and 0.25 hr prior to AA challenge. CT-112 (SEQ. ID NO: 1) was prepared for injection by dissolving the compound in Dulbecco's PBS to give a final CT-112 (SEQ. ID NO: 1) concentration of 5 mg/ml. The control mice were implanted with Alzet minipumps that delivered PBS for 7 days. The AA challenge was the same as described supra in Example 7.
# (§7) Administration of CT-112 (SEQ. ID NO: 1) (60 mg/kg/injection) via multiple intraperitoneal injections was performed at the following times prior to AA challenge: • a) 6, 3, 1 and 0.25 hr; • b) 3, 1 and 0.25 hr; or • c) 1 and 0.25 hr.
# (§8) In addition, the effect of a single administration of CT-112 (SEQ. ID NO: 1) (60 mg/kg) by intraperitoneal injection was performed at either 1 or 3 hr prior to AA challenge. Control mice had Alzet minipumps implanted to deliver PBS for 7 days prior to AA challenge. The AA challenge was the same as described supra in Example 7. The results of the multiple dosing regimens and the 1 hr and 3 hr single dosing regimens were compared to the anti-inflammatory activity of CT-112 (SEQ. ID NO: 1) delivered via Alzet minipump set to deliver 60 mg/kg/day for 7 days using 5 animals per treatment.
# In a separate experiment, the effect of multiple intraperitoneal injections of CT-112 (SEQ. ID NO: 1) at either 6, 3, 1 and 0.25 hr, or 16, 3, 1 and 0.25 hr prior to AA challenge was assessed. The results of both multi-dosing regimens were compared to both phenidone (100 mg/kg administered 15 min prior to AA challenge) and CT-112 (SEQ. ID NO: 1) administered via Alzet mini-pump (60 mg/kg/day for 7 days). For this latter study, the number of animals receiving the single injection of CT-112 (SEQ. ID NO: 1) was increased from 5 to 10.
# Administration to mice of CT-112 (SEQ. ID NO: 1) (60 mg/kg/injection) via multiple subcutaneous injections prior to AA challenge was performed at: • a) 6, 3, 1 and 0.25 hr; • b) 3, 1 and 0.25 hr; or • c) 1 and 0.25 hr. […]
# [2] = system: Arachidonic Acid Induced Myeloperoxidase Activity in Mouse Ear; experiment: myeloperoxidase activity in AA-treated mouse ear tissue (marker for PMNs); set-up: dose or concentration left out as unconfirmed; details: Phenidone 100
# Description: Myeloperoxidase activity in ear tissue was measured as a marker for the presence or absence of polymorphonuclear leukocytes (PMNs) (Barone et al., 1991, J. Neurosci. Res. 29:336-345). After measurement of ear thickness, ears were dissected from the mice and homogenized in 50mM Tris-HCL, pH 7.4 at 4°C to give a 10% (w/v) homogenate. Aliquots of the homogenate were used to determine the amount of myeloperoxidase activity present in the tissue using o-dianisidine (Sigma Chem Co., St. Louis MO) and hydrogen peroxide as substrates and monitoring chromophore generation at 460 nm (Barone et al., 1991, J. Neurosci. Res. 29:336-345).
# [3] = system: Arachidonic Acid Induced Inflammation; experiment: mouse ear model, arachidonic acid (AA) induced inflammation, ear thickness
# Description: as §1, §2, §3, §4, §5, §6, §7, §8
# In a separate experiment, the effect of multiple intraperitoneal injections of CT-112 (SEQ. ID NO: 1) at either 6, 3, 1 and 0.25 hr, or 16, 3, 1 and 0.25 hr prior to AA challenge was assessed. […]
# [4] = system: Delayed Type Hypersensitivity; experiment: mouse model of delayed-type hypersensitivity induced by DNCB; details: Prednisone ip 25 mg/kg, 2 hr prior to challenge
# Description: CT-112 (SEQ. ID NO: 1) was tested for its ability to modulate the immune response in a mouse model of delayed hypersensitivity (Filipp et al., 1984, Allergy, 39: 499-507; Diezel et al., 1989 J. Invest. Dermatol. 93:322-326). The mice used in this study were 8-wk old hairless females (Jackson Laboratories). The mice were sensitized to a contact allergen (1-chloro-2,4-dinitrobenzene, DNCB) by painting the dorsothoracic region twice daily for 5 consecutive days with 50 µl of 0.5% DNCB in 75% acetone:25% vegetable oil. The animals were allowed to rest for 24 hr prior to challenge with DNCB. On the sixth day after initiation of the sensitization treatments, the animals were challenged with 50 µl of DNCB solution applied to the left ear. After 24 hrs, the ear thickness was determined and compared to the unchallenged ear.
# The treatment groups were as follows: • a) PBS control; • b) Prednisone (intraperitoneal injection of 25 mg/kg, 2 hr prior to challenge); • c) 7-day pump (60 mg CT-112/kg/24 hr); • d) CT-112 (intraperitoneal injections of 60 mg/kg/injection at 3, 1, and 0.25 hr prior to challenge and 3, 6 and 21 hr post-challenge); • e) DMSO control (topical application of 50 µl at 3, 1 and 0.25 hr prior to challenge; and • f) CT-112 in DMSO (20 mg/ml, topical application of 50 µl at 3, 1, and 0.25 hr prior to challenge and 3, 6 and 21 hr post-challenge).
# [5] = Table V, Phenidone 100 mg/kg 15 min prior to AA
structure (smiles),measurement,setting,value
"CC(C)[C@H](NC(=O)[C@H](CCC(N)=O)NC(=O)[C@H](CO)NC(=O)[C@@H](NC(=O)[C@@H](N)[C@@H](C)O)[C@@H](C)O)C(=O)O [CT-114, Thr-Thr-Ser-Gln-Val] (H-TTSQV-OH)",% Inhibition of Inflammation,[1]; 6 mg/kg/day,59.3%
same,% Inhibition of Inflammation,[1]; 60 mg/kg/day,62.4%
O=C1CCN(c2ccccc2)N1 [Phenidone],Myeloperoxidase Activity,[2],14.5 ± 8.6 µmole of chromophore formed/min
same,Ear Thickness,"[3]; Phenidone 100mg/kg, 15 min prior to AA, 1 hr after AA",0.01176 ± 0.0008 (10) in
same,% Inhibition of Inflammation,"[3]; Table III, Phenidone 100 mg/kg",88%
same,Thickness Difference (Left-Right),"[3]; Table III, Phenidone 100 mg/kg",0.00073 ± 0.00153 in
same,% Inhibition of Inflammation,[3]; [5],84.2%
same,Thickness Difference (Left-Right),[3]; [5],0.00102 ± 0.00038(5) in
C[C@]12C=CC(=O)C=C1CC[C@@H]1[C@@H]2C(=O)C[C@@]2(C)[C@H]1CC[C@]2(O)C(=O)CO [Prednisone],% Inhibition of Inflammation,[4],96.7%
same,Thickness Difference (Left-Right),[4]; 24 hrs after DNCB,0.00014 ± 0.000446 in
